Source: US10414759B2, “Phenylthiazoles and uses thereof” (Purdue Research Foundation, priority 2017, dated 2019)
Values after ≈ are worked out from the molar mass of the structure shown.

Assays:
[1] = test system: VRS10 (VRSA); assay: MIC/MBC S. aureus strains (Table 8); type: cell-based; conditions: Staphylococcus aureus, VRSA
Experimental: (§1) The minimum inhibitory concentration (MIC) of tested compounds and control antibiotics were determined using the broth microdilution method in accordance with the recommendations contained in the Clinical and Laboratory Standards Institute guidelines, against methicillin-sensitive (ATCC 6538 and NRS107), methicillin-resistant (MRSA), and vancomycin-resistant (VRSA) Staphylococcus aureus, Staphylococcus epidermidis, Enterococcus faecalis, E. faecium, Listeria monocytogenes, and Streptococcus pneumoniae clinical isolates. A bacterial solution equivalent to 0.5 McFarland standard was prepared and diluted in cation-adjusted Mueller-Hinton broth (CAMHB) to achieve a bacterial concentration of about 5×10^5 CFU/mL and seeded in 96-well plates. Enterococcus faecium was diluted in brain heart infusion broth. Enterococcus faecalis, Streptococcus pneumonia and Listeria monocytogenes were diluted in tryptone soya broth (TSB). Compounds and control drugs were added in the first row of 96-well plates and serially diluted (to achieve a concentration gradient ranging from 128 to 1 μg/mL). Plates were then incubated aerobically at 37° C. for at least 18 hours. The minimum bactericidal concentration (MBC) of the active compounds was tested by plating 5 μL from wells with no growth onto Tryptic soy agar (TSA) plates.

[2] = test system: VRS12 (VRSA); assay: MIC/MBC S. aureus strains (Table 8); type: cell-based; conditions: Staphylococcus aureus, VRSA
Experimental: as §1

[3] = test system: MRSA (USA300); assay: Time-kill assay; type: cell-based, Staphylococcus aureus
Experimental: Aliquots (100 μL) were taken from each sample after 2, 4, 6, 8, 10, 12, and 24 hours, serially diluted in phosphate-buffered saline, and transferred to Trypticase soy agar (TSA) (Becton, Dickinson and Company, Sparks, Md., USA) plates. Plates were incubated at 37° C. for at least 16 hours before counting viable CFU/mL to determine the time required to reduce the bacterial cell count by 3-log10.

[4] = test system: methicillin-sensitive S. aureus (MSSA), MRSA and VRSA strains; assay: MIC/MBC summary over the S. aureus strain panel; type: cell-based
Experimental: as §1

[5] = test system: VRE ATCC 700221; assay: MIC/MBC clinical isolate panel (Table 3); type: cell-based, Enterococcus faecium; conditions: Enterococcus
Experimental: (§2) MRSA clinical isolates, and vancomycin-resistant Staphylococcus aureus (VRSA) strain were obtained through the Network of Antimicrobial Resistance in Staphylococcus aureus (NARSA) program. In addition, vancomycin-resistant Enterococcus faecium (VRE) strain was obtained from the ATCC. Bacteria were cultured in cation-adjusted Mueller Hinton broth in a 96-well plate. Compounds, using triplicate samples, were added to the plate and serially diluted. […] Plates were visually inspected and the MIC was categorized as the concentration at which no visible growth of bacteria was observed. The average of triplicate MIC determinations is reported.
as §1

[6] = test system: NRS384 (MRSA USA300); assay: MIC/MBC clinical isolate panel (Table 3); type: cell-based, S. aureus; conditions: Staphylococcus aureus
Experimental: (§3) Bacteria were cultured in cation-adjusted Mueller Hinton broth in a 96-well plate. Compounds, using triplicate samples, were added to the plate and serially diluted. […] Plates were visually inspected and the MIC was categorized as the concentration at which no visible growth of bacteria was observed. The average of triplicate MIC determinations is reported.
(§4) A bacterial solution equivalent to 0.5 McFarland standard was prepared and diluted in cation-adjusted Mueller-Hinton broth (CAMHB) to achieve a bacterial concentration of about 5×10^5 CFU/mL and seeded in 96-well plates. Enterococcus faecium was diluted in brain heart infusion broth. Enterococcus faecalis, Streptococcus pneumonia and Listeria monocytogenes were diluted in tryptone soya broth (TSB).

[7] = test system: NRS72 (MSSA); assay: MIC/MBC clinical isolate panel (Table 3); type: cell-based, S. aureus; conditions: Staphylococcus aureus
Experimental: as §3, §4

[8] = test system: NRS382 (MRSA USA100); assay: MIC/MBC clinical isolate panel (Table 3); type: cell-based, S. aureus; conditions: Staphylococcus aureus
Experimental: as §3, §4

[9] = test system: NRS383 (MRSA USA200); assay: MIC/MBC clinical isolate panel (Table 3); type: cell-based, S. aureus; conditions: Staphylococcus aureus
Experimental: as §3, §4

[10] = test system: NRS119 (MRSA); assay: MIC/MBC clinical isolate panel (Table 3); type: cell-based, S. aureus; conditions: Staphylococcus aureus
Experimental: as §3, §4

[11] = test system: NRS123 (MRSA USA400); assay: MIC/MBC clinical isolate panel (Table 3); type: cell-based, S. aureus; conditions: Staphylococcus aureus
Experimental: as §3, §4

[12] = test system: Enterococcus faecium ATCC 700221 (VRE); assay: MIC/MBC Gram-positive pathogens (Table 9); type: cell-based; conditions: Enterococcus faecium
Experimental: as §1

[13] = test system: Enterococcus faecalis ATCC 51299 (VRE); assay: MIC/MBC Gram-positive pathogens (Table 9); type: cell-based; conditions: Enterococcus faecalis
Experimental: as §4

[14] = test system: VRSA10; assay: MIC/MBC clinical isolate panel (Table 3); type: cell-based, S. aureus; conditions: Staphylococcus aureus
Experimental: as §2, §1

[15] = test system: MRSA USA300 (NRS384) biofilm; assay: MRSA biofilm eradication, microtiter dish biofilm formation assay; type: cell-based, Staphylococcus aureus
Experimental: The bacterial suspension was removed and compounds were added at concentrations ranging from 128 to 1 μg/mL in TSB. Compounds were incubated with the biofilm at 37° C. for 24 hours. In order to quantify the biofilm mass, the bacterial suspension was removed and wells were washed with phosphate-buffered saline to remove planktonic bacteria. An aliquot of 0.1% crystal violet was added to each well to stain biofilm mass. After 30 minutes, wells were washed with sterile water and dried. Wells were de-stained using 100% ethanol prior to quantifying biofilm mass using a spectrophotometer (OD595). Data are presented as percent eradication of MRSA USA300 biofilm for each test agent relative to the negative (DMSO) control wells. Data were analyzed using two-way ANOVA with post-hoc Sidak's test for multiple comparisons (P<0.05).

[16] = test system: methicillin-sensitive S. aureus (MSSA), MRSA and VRSA strains; conditions: literature (Moran, N. Engl. J. Med. 2006); cited from earlier work

For `CN[C@H](CC(C)C)C(=O)N[C@H]1C(=O)N[C@@H](CC(N)=O)C(=O)N[C@H]2C(=O)N[C@H]3C(=O)N[C@H](C(=O)N[C@H](C(=O)O)c4cc(O)cc(O)c4-c4cc3ccc4O)[C@H](O)c3ccc(c(Cl)c3)Oc3cc2cc(c3O[C@@H]2O[C@H](CO)[C@@H](O)[C@H](O)[C@H]2O[C@H]2C[C@](C)(N)[C@H](O)[C@H](C)O2)Oc2ccc(cc2Cl)[C@H]1O` [Vancomycin, vancomycin, reference compound], the MBC [1] was > 64 µg/mL, the MIC [1] was > 64 µg/mL and the MBC [2] was > 64 µg/mL. For the same compound, the MIC [2] was > 64 µg/mL, the “time to three-log10 reduction in the initial inoculum of MRSA” value ([3]; 3.0×MIC) was 24 hours and the “time required to reduce the MRSA inoculum to zero colony forming units” value ([3]; MRSA US300, 3.0×MIC) was 24 h. The “MIC range against MRSA” value [4] was 1 to 2 µg/mL, the MBC [5] was > 64 µg/mL and the MIC [5] was > 64 µg/mL. The MIC [6] was 1 µg/mL (≈ 0.69 µM), the MIC [7] was 2 µg/mL (≈ 1.38 µM) and the MIC [8] was 1 µg/mL (≈ 0.69 µM). It also gave an MIC [9] of 1 µg/mL (≈ 0.69 µM), an MIC [10] of 1 µg/mL (≈ 0.69 µM) and an MIC [11] of 1 µg/mL (≈ 0.69 µM). The MBC [12] was > 64 µg/mL, the MIC [12] was > 64 µg/mL and the MBC [13] was 64 µg/mL (≈ 44.2 µM). For the same compound, the MBC [14] was > 64 µg/mL, the MIC [14] was > 64 µg/mL and the “MRSA biofilm mass disrupted” value ([15]; at 1×MIC) was 3%. The “reduction of MRSA biofilm mass” value ([15]; at 32×MIC) was 34%.
In the case of `CCO/N=C(\C(=O)N[C@@H]1C(=O)N2C(C(=O)[O-])=C(Sc3nc(-c4cc[n+](C)cc4)cs3)CS[C@H]12)c1nsc(N)n1` [cefatroline], the “MIC range against MRSA and VRSA, reported” value [16] is given as 0.5 to 4 µg/mL.
